Laboratory results: patent US7417175B2, “Interstitial prostatism model animal” (Taiho Pharmaceuticals Co., Ltd., priority 2001, dated 2008)

Experiments:
[1] = test system: subcutaneously-implanted, rat fetal urogenital sinus-derived tissues; experiment: Inhibition of weight increase of rat fetal urogenital sinus-derived tissue implanted subcutaneously in nude mice (prostatic stromal hyperplasia model); format: in vivo, male nude mice (BALB/cA Jcl-nu); settings: for Rate of inhibition (%) to weight increase of implanted tissue: tissue weighed day 14, vs solvent group
Description: Under ether anesthesia, fetuses were removed from female SD rats that were 21 days pregnant. From the removed male fetuses, urogenital sinuses were removed also under ether anesthesia while observing through a stereoscopic microscope. The urogenital sinuses were stored in a sterilized culture medium until implantation. The abdominal skin adjacent the left femoral region of 6-week old BALB/c male nude mice was cut open about 2 to 3 mm under ether anesthesia. A single rat fetal urogenital sinus obtained in (1) above was subcutaneously implanted after incision using a forceps and the incision was sutured. Thereafter, these nude mice were reared in clean racks (Rat Bracket Cages, 3 to 4 mice/cage) for 2 weeks under the following conditions: • Temperature: 20 to 26° C. • Humidity: 30 to 70% • Lighting hours: 12-hour light-dark cycle; light-on at 8 am and light-out at 8 pm • Feed and feeding method: solid feed for mouse, MF (irradiated), ad libitum • Water and watering method: tap water, ad libitum (3) Weighing of Implanted Tissue (Rat Fetal Urogenital Sinus-derived Tissue) Animal models for prostatic stromal hyperplasia of the invention were prepared according to the methods described in Example 1 (1) and (2) by implanting the urogenital sinuses of rat fetuses (21 day-old) beneath the abdominal skin of 6-week-old male nude mice (BALB/cA Jcl-nu). For 2 weeks from the implantation day (day 0), a known therapeutic agent for benign prostatic hyperplasia, i.e., chlormadinone acetate (anti-androgen agent: 6-chloro-3,20-dioxopregna-4,6-dien-17,alpha-yl acetate; suspended or dissolved in 0.5% hydroxypropylmethyl cellulose (0.5% HPMC) solvent) was forcedly administered orally once a day (3 test substance-administered groups: 30 mg/kg·day, 100 mg/kg·day, 300 mg/kg·day; n=10 mice/group). Two weeks after the beginning of administration (day 14), the model animals were sacrificed by over anesthesia, and the implanted tissues (rat fetal urogenital sinus-derived tissues) were removed and weighed (weights from the test substance-administered groups). As a control experiment, for 2 weeks after implantation, model animals (solvent-administered group: n=10 mice) were forcedly administered with a solvent (0.5% HPMC), no chlormadinone acetate dissolved therein, once a day orally. […] The inhibition rate to weight increase of the subcutaneously-implanted, rat fetal urogenital sinus-derived tissues was calculated according to the formula shown in Equation 1, with respect to each chlormadinone acetate-administered group, and the effects of the therapeutic agent for benign prostatic hyperplasia (chlormadinone acetate) upon these tissues were then evaluated. […]

[2] = test system: rat fetal urogenital sinus-derived tissues implanted beneath the prostatic capsules; experiment: Inhibition of weight increase of rat fetal urogenital sinus-derived tissue implanted beneath the prostatic capsule of rats (prostatic stromal hyperplasia model); format: in vivo, male SD rats
Description: Under ether anesthesia, fetuses were removed from female SD rats that were 20 days pregnant. From the removed fetuses, the urogenital sinuses were removed under ether anesthesia while observing through a stereoscopic microscope. The urogenital sinuses were stored in a sterilized culture medium until implantation. The prostate glands were exposed by midline incision using 6-week old male SD rats under ether anesthesia. The capsule of prostate right ventral lobe was slightly cut open while observing through a stereoscopic microscope. Two of the fetal urogenital sinuses obtained in (1) above were implanted using a forceps beneath the capsule, and the incision in the capsule was sutured. The cut abdominal skin then closed and the rats were reared for 2 to 8 weeks in normal rearing cages (Rat Bracket Cages, 3 to 4 rats/cage) under the following conditions: • Temperature: 20 to 26° C. • Humidity: 30 to 70% • Lighting hours: 12-hour light-dark cycle; light-on at 8 am and light-out at 8 pm • Feed and feeding method: solid feed for mouse, MF (irradiated), ad libitum • Water and watering method: tap water, ad libitum (3) Weighing of Implanted Tissue (Rat Fetal Urogenital Sinus-derived Tissue) Animal models for prostatic stromal hyperplasia of the present invention were prepared according to the methods described in Examples 2 (1) and (2) by implanting the urogenital sinuses of rat fetuses (20 days of intrauterine life) beneath the capsules of prostate ventral lobes of 6-week-old male SD rats. […] The rate inhibition to weight increase of the rat fetal urogenital sinus-derived tissues implanted beneath the prostatic capsules was calculated according to the formula shown in Equation 1 above, and the effects of the therapeutic agent on benign prostatic hyperplasia (chlormadinone acetate) were then evaluated. • Experiment (2): Animal models for prostatic stromal hyperplasia prepared as above were reared under the conditions described in Example 2 (2) for 3 weeks (until day 21) from the implantation day (day 0). […]

CC(=O)O[C@]1(C(C)=O)CC[C@H]2[C@@H]3C=C(Cl)C4=CC(=O)CC[C@]4(C)[C@H]3CC[C@@]21C [chlormadinone acetate, 6-chloro-3,20-dioxopregna-4,6-dien-17,alpha-yl acetate]
Rate of inhibition (%) to weight increase of implanted tissue ([1]; 30 mg/kg·day orally once a day for 2 weeks from implantation day): 21.8% | Rate of inhibition (%) to weight increase of implanted tissue ([1]; 100 mg/kg·day orally once a day for 2 weeks from implantation day): 39.5% | Rate of inhibition (%) to weight increase of implanted tissue ([1]; 300 mg/kg·day orally once a day for 2 weeks from implantation day): 38.8% | Effect on tissue weight increase (in words) ([1]; oral, 2 weeks of rearing after implantation, subcutaneous implant in nude mice): significantly inhibits the tissues weight increase | Rate of inhibition (%) to weight increase of implanted tissue ([2]; Experiment (1): 10 mg/kg·day orally for 3 weeks from implantation date, tissue weighed day 21): 30.7% | Rate of inhibition (%) to weight increase of implanted tissue ([2]; Experiment (2): 10 mg/kg·day orally for 3 weeks from 3 weeks after implantation (day 21 to day 42), tissue weighed day 42): 67.0% | Effect on tissue weight increase (in words) ([2]; Experiments (1) and (2), 10 mg/kg·day oral, implant beneath prostatic capsule of rats): significantly inhibits the tissue weight increase
